Literature values in patent US9993454B2, “Solid nanoparticle formulation of water insoluble pharmaceutical substances with reduced Ostwald ripening” (Luminus Biosciences, Inc., priority 2006, dated 2018).

Settings: most test systems

**Q.** For `C/C(=C\c1csc(C)n1)[C@@H]1C[C@@H]2O[C@]2(C)CCC[C@H](C)[C@H](O)[C@@H](C)C(=O)C(C)(C)[C@@H](O)CC(=O)O1` [epothilone B], which “effectiveness relative to epothilone A” value is on record?
**A.** approximately ten-time more effective
